# Measurements reported in US20030199526A1, “Pyrimidine-based compounds useful as GSK-3 inhibitors” (priority 2001, published 2003).
# Target: T1, GSK-3β (AA 1-420) (Homo sapiens, UniProt P49841)
# T1 construct: GSK-3β (AA 1-420)
# Test: Ki determination for the inhibition of GSK-3 (coupled enzyme system)
# Assay type: biochemical
# Conditions: 20 μM ATP, 300 μM peptide, 20 nM GSK-3β, 30° C.
# Procedure: Compounds were screened for their ability to inhibit GSK-3β (AA 1-420) activity using a standard coupled enzyme system [Fox et al. Protein Sci. 7, 2249 (1998)]. Reactions were carried out in a solution containing 100 mM HEPES (pH 7.5), 10 mM MgCl2, 25 mM NaCl, 300 μM NADH, 1 mM DTT and 1.5% DMSO. Final substrate concentrations in the assay were 20 μM ATP (Sigma Chemicals, St Louis, Mo.) and 300 μM peptide (American Peptide, Sunnyvale, Calif.). Reactions were carried out at 30° C. and 20 nM GSK-3β. Final concentrations of the components of the coupled enzyme system were 2.5 mM phosphoenolpyruvate, 300 μM NADH, 30 μg/ml pyruvate kinase and 10 μg/ml lactate dehydrogenase.
# An assay stock buffer solution was prepared containing all of the reagents listed above with the exception of ATP and the test compound of interest. The assay stock buffer solution (175 μl) was incubated in a 96 well plate with 5 μl of the test compound of interest at final concentrations spanning 0.002 μM to 30 μM at 30° C. for 10 min. Typically, a 12 point titration was conducted by preparing serial dilutions (from 10 mM compound stocks) with DMSO of the test compounds in daughter plates. The reaction was initiated by the addition of 20 μl of ATP (final concentration 20 μM). Rates of reaction were obtained using a Molecular Devices Spectramax plate reader (Sunnyvale, Calif.) over 10 min at 30° C. The Ki values were determined from the rate data as a function of inhibitor concentration.
# T1 sequence (P49841 whole entry, species assumed, the tested form may be a part): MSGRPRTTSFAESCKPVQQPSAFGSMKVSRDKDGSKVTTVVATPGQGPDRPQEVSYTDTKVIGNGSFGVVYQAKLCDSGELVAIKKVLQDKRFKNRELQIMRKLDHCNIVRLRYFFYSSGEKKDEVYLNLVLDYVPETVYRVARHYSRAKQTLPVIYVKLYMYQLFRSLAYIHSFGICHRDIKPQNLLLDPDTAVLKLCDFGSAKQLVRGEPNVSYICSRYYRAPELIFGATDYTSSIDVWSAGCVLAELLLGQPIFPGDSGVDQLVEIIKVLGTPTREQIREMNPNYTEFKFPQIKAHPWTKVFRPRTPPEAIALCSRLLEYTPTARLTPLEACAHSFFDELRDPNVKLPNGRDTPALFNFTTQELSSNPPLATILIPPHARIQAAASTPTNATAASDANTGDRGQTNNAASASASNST
row,Ki,Structure (SMILES)
1,< 100 nM,"N#Cc1ccc(NCCNc2nc(-c3ccc(Cl)cc3Cl)nc3ccccc23)nc1 [Compound I-1, 6-{2-[2-(2,4-Dichloro-phenyl)-quinazolin-4-ylamino]-ethylamino}-nicotinonitrile]"
2,< 100 nM,N#Cc1ccc(NCCNc2nc(-c3ccc(Cl)cc3)nc3ccccc23)nc1 [Compound I-2]
3,< 100 nM,"N#Cc1ccc(NCCNc2nc(-c3ccccc3C(F)(F)F)nc3ccccc23)nc1 [Compound I-8, 6-{2-[2-(Trifluoromethyl-phenyl)-quinazolin-4-ylamino]-ethylamino}-nicotinonitrile]"
4,< 100 nM,"N#Cc1ccc(NCCNc2nc(-c3ccccc3)nc3ccccc23)nc1 [Compound I-9, 6-[2-(2-Phenyl-quinazolin-4-ylamino)-ethylamino]-nicotinonitrile]"
5,< 100 nM,"N#Cc1ccc(NCCNc2nc(-c3ccccc3Cl)nc3ccccc23)nc1 [Compound I-11, 6-{2-[2-(2-Chloro-phenyl)-quinazolin-4-ylamino]-ethylamino}-nicotinonitrile]"
6,< 100 nM,"N#Cc1ccc(-c2nc(NCCNc3ccc(C#N)cn3)c3ccccc3n2)cc1 [Compound I-19, 6-{2-[2-(4-Cyano-phenyl)-quinazolin-4-ylamino]-ethylamino}-nicotinonitrile]"
7,< 100 nM,"N#Cc1ccc(NCCNc2nc(-c3ccc(Cl)cc3Cl)nc3ccccc23)cc1 [Compound I-62, 4-{2-[2-(2,4-Dichloro-phenyl)-quinazolin-4-ylamino]-ethylamino}-benzonitrile]"
8,< 100 nM,"N#Cc1ccc(NCCNc2nc(-c3ccccc3Cl)nc3cccnc23)nc1 [Compound I-118, 6-{2-[2-(2-Chloro-phenyl)-pyrido[3,2-d]pyrimidin-4-ylamino]-ethylamino}-nicotinonitrile]"
9,< 100 nM,"COc1ccccc1-c1nc(NCCNc2ccc(C#N)cn2)c2ccccc2n1 [Compound I-188, 6-{2-[2-(2-Methoxy-phenyl)-quinazolin-4-ylamino]-ethylamino}-nicotinonitrile]"
10,< 100 nM,"N#Cc1ccc(NCCNc2nc(-c3ccccc3O)nc3ccccc23)nc1 [Compound I-189, 6-{2-[2-(2-Hydroxy-phenyl)-quinazolin-4-ylamino]-ethylamino}-nicotinonitrile]"
11,< 100 nM,"N#Cc1ccc(NCCNc2nc(-c3ccccc3F)nc3ccccc23)nc1 [Compound I-190, 6-{2-[2-(2-Fluoro-phenyl)-quinazolin-4-ylamino]-ethylamino}-nicotinonitrile]"
12,< 100 nM,"N#Cc1ccc(NCCNc2nc(-c3ccc(F)cc3F)nc3ccccc23)nc1 [Compound I-191, 6-{2-[2-(2,4-Difluoro-phenyl)-quinazolin-4-ylamino]-ethylamino}-nicotinonitrile]"
13,< 100 nM,"N#Cc1ccc(NCCNc2nc(-c3cc(Cl)ccc3-c3ccccc3)nc3ccccc23)nc1 [Compound I-195, 6-{2-[2-(4-Chloro-biphenyl-2-yl)-quinazolin-4-ylamino]-ethylamino}-nicotinonitrile]"
14,< 100 nM,"Cc1nc(-c2ccccc2C(F)(F)F)nc(NCCNc2ccc(C#N)cn2)c1C [Compound I-197, 6-{2-[5,6-Dimethyl-2-(2-trifluoromethyl-phenyl)-pyrimidin-4-ylamino]-ethylamino}-nicotinonitrile]"
15,< 100 nM,"Cc1nc(-c2ccc(Cl)cc2Cl)nc(NCCNc2ccc(C#N)cn2)c1C [Compound I-198, 6-{2-[2-(2,4-Dichloro-phenyl)-5,6-dimethyl-pyrimidin-4-ylamino]-ethylamino}-nicotinonitrile]"
16,< 100 nM,Cc1nc(-c2ccccc2Cl)nc(NCCNc2ccc(C#N)cn2)c1C [Compound I-200]
